# Where a name gives a salt, the structure may show the parent alone. Read-outs that look alike come from different tables or passages of the source.
# Tests used:
# [1] = system: K562 cell line; experiment: MTT assay: cytotoxicity against the K562 cell line; assay type: cell-based; settings: Homo sapiens, K562 cells, 72 h, growth inhibition
# Description: Assessment of Cell Viability via MTT Assay: Cytotoxicity of compounds against the K562 cell line was assessed using the [3-(4,5-dimethylthiazol-2-yl)-2,5-diphenyl tetrazolium bromide] (MTT) assay. Fifteen thousand tumor cells were seeded into wells of flat-bottomed 96-well plates. An amount of 2 μL of a dilution series of each compound dissolved in DMSO was added to 198 μL of appropriate growth medium at three replicates per concentration and the plates were incubated in a 5% CO2 incubator at 37° C. After 72 h, the number of metabolically active cells was determined by MTT assay. Absorbance of each well was measured at 550 nm on a Tecan Sunrise reader. Dose-response curves for growth inhibition were generated as a percentage of untreated control. IC50 was determined by nonlinear regression (Prism, Graph Pad Software, Inc.).
# [2] = system: Endothelial cells (HUVEC); experiment: Neovessels formation inhibition (capillary tube formation on Matrigel); assay type: cell-based; settings: Homo sapiens
# Description: The capability of compounds to inhibit the formation of capillaries was evaluated in vitro. Twenty thousand Endothelial cells (HUVEC) were placed on a Matrigel matrix and allowed to form capillary tubes in the presence or absence of the compounds overnight. The cells were stained with calcein AM, and the effect of the compounds on capillary tube formation was assessed using an inverted fluorescent microscope (Nikon). The reference compound used in this assay AVE-8063 is 3-amino-deoxycombretastatin A-4.
# [3] = molecular target: T1, colchicine site on tubulin (biotinylated porcine tubulin) (Sus scrofa, UniProt P02550+P02554); experiment: Tubulin displacement assay (3H-colchicine radioligand binding, SPA)
# T1 construct: biotin (chemical label)
# Description: The assay was developped following the method published by Tahir et al. (2001) and others using biotinylated porcine tubulin captured to streptavidin coated yttrium silicate scintillation proximity assay (YSi SPA) beads in a PIPES/EGTA/MgCl2/GTP buffer. […] IC50s were determined using GraphPad Prism Version 5.01 and the sigmoidal dose response with variable slope curve fit.
# [4] = molecular target: T2, purified tubulin (Sus scrofa, UniProt P02550+P02554); experiment: Tubulin polymerisation assay (CytoDYNAMIX Screen kit, absorbance at 340 nm); assay type: biochemical; settings: for inhibition at 5 µM: 5 μM compound, 4 mg/ml tubulin, read-out: % Inhibition of tubulin polymerization at 5 μM; for IC50: tubulin polymerization
# T2 construct: purchased Cytoskeleton #BK006P
# Description: The polymerization of purified tubulin was monitored spectrophotometrically by the change in absorbance at 340 nm using the CytoDYNAMIX Screen kit (#BK006P, Cytoskeleton) according to the instructions of the manufacturer. […] The absorbance was measured at 1 minute intervals for 60 minutes. The test compound was added to a 4 mg/ml tubulin solution containing 10% glycerol and 1 mM GTP in Buffer 1 (Buffer 1: 80 mM PIPES; 2 mM MgCl2; 0.5 mM EGTA, pH 6.9). Increased absorbance indicates increase in microtubule formation from tubulin heterodimers.
# [5] = system: HUVEC; experiment: Pre-established vessels disruption (capillary tubes on Matrigel); assay type: cell-based; settings: Homo sapiens, HUVEC tubes formed 5 hours, then compounds overnight
# Description: To explore the effect of the compounds on pre-established vasculature, twenty thousand cells (HUVEC) were seeded and incubated over Matrigel for 5 hours to allow the capillary tubes to form. Then, compounds were added and incubated overnight. The disappearance of existing vasculature was monitored with fluorescent microscopy.
# [6] = HUVEC on Matrigel, compounds overnight, read-out: Neovessels Formation Inhibition Number of Branch Junctions IC50
# [7] = HUVEC on Matrigel, compounds overnight, read-out: Neovessels Formation Inhibition Total Tubule Length IC50
# [8] = competition with 50 nM [3H]-colchicine, 4 h at 37° C., read-out: IC50
# [9] = read-out: Pre-established Vessels Disruption Number of Branch Junctions IC50
# [10] = read-out: Pre-established Vessels Disruption Total Tubule Length IC50
# T1 sequence (P02554 whole entry): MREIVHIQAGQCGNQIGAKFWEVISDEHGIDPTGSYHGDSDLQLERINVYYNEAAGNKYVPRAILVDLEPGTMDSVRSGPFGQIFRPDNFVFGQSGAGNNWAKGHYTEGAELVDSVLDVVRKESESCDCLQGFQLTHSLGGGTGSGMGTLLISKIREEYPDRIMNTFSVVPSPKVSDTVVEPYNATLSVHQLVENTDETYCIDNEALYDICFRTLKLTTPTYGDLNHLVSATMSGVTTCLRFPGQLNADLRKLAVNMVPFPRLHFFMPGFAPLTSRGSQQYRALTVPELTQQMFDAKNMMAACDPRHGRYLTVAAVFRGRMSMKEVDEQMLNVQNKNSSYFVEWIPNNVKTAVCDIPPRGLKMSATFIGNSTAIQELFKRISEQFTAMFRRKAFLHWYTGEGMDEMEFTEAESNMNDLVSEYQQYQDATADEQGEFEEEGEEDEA
# T1 sequence (P02550 whole entry): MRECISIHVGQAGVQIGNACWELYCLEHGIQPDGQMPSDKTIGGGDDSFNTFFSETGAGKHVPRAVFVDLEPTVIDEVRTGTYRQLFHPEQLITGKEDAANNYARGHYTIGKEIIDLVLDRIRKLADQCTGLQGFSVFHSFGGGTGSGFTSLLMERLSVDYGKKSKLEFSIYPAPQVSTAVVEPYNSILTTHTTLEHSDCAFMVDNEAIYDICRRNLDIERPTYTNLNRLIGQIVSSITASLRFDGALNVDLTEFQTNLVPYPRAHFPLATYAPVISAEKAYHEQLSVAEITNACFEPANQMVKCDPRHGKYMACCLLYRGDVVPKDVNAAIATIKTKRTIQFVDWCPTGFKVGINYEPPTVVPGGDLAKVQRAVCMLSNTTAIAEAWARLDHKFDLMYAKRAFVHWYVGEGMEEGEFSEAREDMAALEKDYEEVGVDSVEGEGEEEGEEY
# T2 sequence (P02554 whole entry): as the sequence (P02554 whole entry) above
# T2 sequence (P02550 whole entry): as the sequence (P02550 whole entry) above
Structure (SMILES),"IC50 [3, 8] [nM]",inhibition at 5 µM [4] [%],IC50 [4] [nM],IC50 [1] [nM],"IC50 [2, 6] [nM]","IC50 [2, 7] [nM]","IC50 [5, 9] [nM]","IC50 [5, 10] [nM]","IC50 ([2]; HUVEC, read-out: Neovessels Formation Inhibition Number of Branch Junctions IC50 (nM)) [nM]","IC50 ([2]; HUVEC, read-out: Neovessels Formation Inhibition Total Tubule Length IC50 (nM)) [nM]",IC50 [3] [nM]
"CCOc1ccc2c(Cc3cc(OC)c(OCC(C)C)c(OC)c3)cncc2c1O [Compound 20, 4-(4-Isobutoxy-3,5-dimethoxybenzyl)-7-ethoxyisoquinolin-8-ol hydrochloride]",,56.9,1520,20.8,24.9,31.9,22.3,31.7,,,
"CCOc1ccc2c(C(=O)c3cc(OC)c(OC)c(OC)c3)cncc2c1 [Compound 40, (7-Ethoxyisoquinolin-4-yl)(3,4,5-trimethoxyphenyl)methanone hydrochloride]",,58.8,1130,19.6,8.2,12.9,32.8,53.4,,,
"CCOc1ccc2c(C(=O)c3cc(OC)c(OCC)c(OC)c3)cncc2c1O [Compound 56, (4-Ethoxy-3,5-dimethoxyphenyl)(7-ethoxy-8-hydroxyisoquinolin-4-yl)methanone hydrochloride]",,65.1,1940,4.39,10.7,12.2,14.4,16.1,,,
"CCOc1ccc2c(C(=O)c3cc(OC)c(OCC)c(OC)c3)cncc2c1N [Compound 58, (8-amino-7-ethoxyisoquinolin-4-yl)(4-ethoxy-3,5-dimethoxyphenyl)methanone hydrochloride]",,38.2,3490,1.23,0.53,0.59,0.99,1.36,,,
"CCCOc1c(OC)cc(C(=O)c2cncc3c(OC(C)=O)c(OCC)ccc23)cc1OC [Compound 65, 4-(3,5-Dimethoxy-4-propoxybenzoyl)-7-ethoxyisoquinolin-8-yl acetate]",,13,,3.81,2.88,4.23,3.36,9.92,,,
"CCCOc1c(OC)cc(C(=O)c2cncc3c(O)c(OCC)ccc23)cc1OC [Compound 67, (3,5-Dimethoxy-4-propoxyphenyl)(7-ethoxy-8-hydroxyisoquinolin-4-yl)methanone hydrochloride]",38.7,10,,4.64,3.84,4.8,9.18,12.6,,,
"CCOc1ccc2c(C(=O)c3cc(OC)c(OC)c(OC)c3)cncc2c1OP(=O)(O)O [Compound 98, 7-ethoxy-4-(3,4,5-trimethoxybenzoyl)isoquinolin-8-yl disodium phosphate]",,49,,7.57,,,9.22,15.1,3.68,6.5,121
"CC[C@]1(O)C[C@@H]2CN(CCc3c([nH]c4ccccc34)[C@@](C(=O)OC)(c3cc4c(cc3OC)N(C)[C@H]3[C@@](O)(C(=O)OC)[C@H](OC(C)=O)[C@]5(CC)C=CCN6CC[C@]43[C@@H]65)C2)C1 [Vinblastine, reference compound]",,77.7,1050,3.66,1.55,3.44,2.09,5.39,,,

# Second part, led by results:
"IC50 [3, 8] [nM]",inhibition at 5 µM [4] [%],IC50 [4] [nM],Structure (SMILES),IC50 [1] [nM],"IC50 [2, 6] [nM]","IC50 [2, 7] [nM]","IC50 [5, 9] [nM]","IC50 [5, 10] [nM]","IC50 ([2]; HUVEC, read-out: Neovessels Formation Inhibition Number of Branch Junctions IC50 (nM)) [nM]","IC50 ([2]; HUVEC, read-out: Neovessels Formation Inhibition Total Tubule Length IC50 (nM)) [nM]",IC50 [3] [nM]
220,85,1190,"CCOc1ccc2c(Cc3cc(OC)c(OC)c(OC)c3)cncc2c1O [Compound 1, 4-(3,4,5-Trimethoxybenzyl)-7-ethoxyisoquinolin-8-ol hydrochloride]",29.1,38.5,54.5,,,,,
170,76.6,1040,"CCOc1ccc2c(Cc3cc(OC)c(OC)c(OC)c3)cncc2c1N [Compound 3, 7-Ethoxy-4-(3,4,5-trimethoxybenzyl)isoquinolin-8-amine dihydrochloride]",10.7,15.3,21.8,14.9,45.6,,,
1600,,3440,"COc1cc(Cc2cncc3c(OC)c(OC)ccc23)cc(OC)c1OC [Compound 10, 4-(3,4,5-Trimethoxybenzyl)-7,8-dimethoxyisoquinoline hydrochloride]",283,,,,,,,
,65.8,1090,"CCOc1ccc2c(Cc3cc(OC)c(OC)c(OC)c3)cncc2c1OS(N)(=O)=O [Compound 21, 4-(3,4,5-Trimethoxybenzyl)-7-ethoxyisoquinolin-8-yl sulfamate hydrochloride]",36.9,47.3,52.8,26.7,60.5,,,
,71.3,880,"CCOc1ccc2c(C(=O)c3cc(OC)c(OC)c(OC)c3)cncc2c1N [Compound 29, (8-Amino-7-ethoxyisoquinolin-4-yl)(3,4,5-trimethoxyphenyl)methanone hydrochloride]",1.64,1.04,1.47,1.78,2.26,,,
,63.4,1500,"C=CCOc1c(OC)cc(Cc2cncc3c(O)c(OCC)ccc23)cc1OC [Compound 32, 4-(4-(Allyloxy)-3,5-dimethoxybenzyl)-7-ethoxyisoquinolin-8-ol hydrochloride]",21.5,12.4,21.9,20,48.8,,,
91.9,17,,"CCOc1ccc2c(C(=O)c3cc(OC)c(OCC)c(OC)c3)cncc2c1OS(N)(=O)=O [Compound 57, 7-Ethoxy-4-(4-ethoxy-3,5-dimethoxybenzoyl)isoquinolin-8-yl sulfamate]",2.69,2.65,3.97,4.37,6.72,,,
745,21.5,,"CCOc1ccc2c(C(=O)c3cc(OC)c(OCC)c(OC)c3)cncc2c1NS(N)(=O)=O [Compound 59, 7-Ethoxy-4-(4-ethoxy-3,5-dimethoxybenzoyl)isoquinolin-8-yl sulfamide]",7.04,8.32,25.2,27.1,38.2,,,
,79.5,900,"CCCOc1c(OC)cc(Cc2cncc3c(N)c(OCC)ccc23)cc1OC [Compound 64, 4-(3,5-Dimethoxy-4-propoxybenzyl)-7-ethoxyisoquinolin-8-amine dihydrochloride]",11.2,7.02,9.54,7.41,14.7,,,
3300,54.5,,"CCOc1ccc2c(C(=O)c3cc(OC)c(OC)c(OC)c3)cncc2c1OC(C)=O [Compound 96, 7-Ethoxy-4-(3,4,5-trimethoxybenzoyl)isoquinolin-8-yl acetate]",5.85,5.07,8.1,9.14,15.3,,,
41.4,4,,"CCOc1ccc2c(C(=O)c3cc(OC)c(OC)c(OC)c3)cncc2c1O [Compound 97, (7-Ethoxy-8-hydroxyisoquinolin-4-yl)(3,4,5-trimethoxyphenyl)methanone hydrochloride]",4.86,4.04,5.52,6.65,8.82,,,
,35,,"CCOc1ccc2c(C(=O)c3cc(OC)c(OC)c(OC)c3)cncc2c1NS(N)(=O)=O [Compound 105, N-(7-Ethoxy-4-(3,4,5-trimethoxybenzoyl)isoquinolin-8-yl)sulfamide hydrochloride]",4.18,5.71,8.06,9.27,9.3,,,

# Reference: patent US20130131018A1, “SUBSTITUTED ISOQUINOLINES AND THEIR USE AS TUBULIN POLYMERIZATION INHIBITORS” (Exonhit S.A., priority 2010, published 2013)
